In PMC1904258, “X-ray Structures of the Signal Recognition Particle Receptor Reveal Targeting Cycle Intermediates” (PLoS ONE, 2007):

Biological target: T1, FtsY (T. aquaticus) (Thermus aquaticus, UniProt P83749)
T1 construct: FtsY retaining N-terminal helix N1 (naturally lacks A-domain), NG domains; expressed in E. coli BL21(DE3) from pET21; apo/GMPPNP NCS dimer in crystal
T1 sequence (P83749 1-304): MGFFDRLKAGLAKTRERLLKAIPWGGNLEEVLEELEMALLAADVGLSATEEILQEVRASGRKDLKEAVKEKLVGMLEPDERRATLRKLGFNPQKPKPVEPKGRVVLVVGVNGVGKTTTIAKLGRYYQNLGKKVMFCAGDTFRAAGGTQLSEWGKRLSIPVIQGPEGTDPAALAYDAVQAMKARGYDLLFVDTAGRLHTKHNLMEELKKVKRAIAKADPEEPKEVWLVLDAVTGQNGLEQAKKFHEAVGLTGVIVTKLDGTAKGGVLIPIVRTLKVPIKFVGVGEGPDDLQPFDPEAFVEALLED
Assay: X-ray crystal structure of complex ([…] and […] Å)
Format: binding
Details: non-hydrolysable GTP analogue; form I (F1, 2.2 Å) grown with MgCl2, no ordered Mg2+; form II (F2, 2.3 Å) without Mg2+; GTPase active site, one monomer of the dimer

Nc1nc2c(ncn2[C@@H]2O[C@H](COP(=O)(O)OP(=O)(O)NP(=O)(O)O)[C@@H](O)[C@H]2O)c(=O)[nH]1 [GMPPNP]
X-ray crystal structure of complex (2.2 and 2.3 Å): one monomer in apo-FtsY and the other FtsY monomer bound with GMPPNP
